Results as given in the NIST ThermoML archive (doi:10.1016/j.jct.2016.04.008).

Settings: for mass density: 100 kPa, Buoyancy - hydrostatic balance with magnetic suspension - one sinker

CCCn1cc[n+](C)c1.F[B-](F)(F)F [1-propyl-3-methylimidazolium tetrafluoroborate]
Metastable liquid
Settings | mass density [kg/m3]
263.48 K | 1263.82
267.76 K | 1260.36
273.92 K | 1255.4
278.64 K | 1251.98
283.36 K | 1248.34
288.62 K | 1245.07
293.07 K | 1241.48
298.18 K | 1237.91
303.09 K | 1234.13
308.11 K | 1230.24
313.13 K | 1226.49
318 K | 1222.86
322.91 K | 1219.26
328.37 K | 1215.54
333.47 K | 1211.69
337.99 K | 1208.71
342.79 K | 1205.15
348.01 K | 1201.38
353 K | 1198.22
359.33 K | 1194.13
363.9 K | 1190.61

surface tension liquid-gas [mN/m], Metastable liquid
Settings | Ring tensiometer | Willhelmy plate method
273.75 K | – | 50.71
273.79 K | 51.33 | –
278.5 K | – | 50.51
278.59 K | 51.07 | –
283.29 K | – | 50.25
283.35 K | 50.8 | –
288.51 K | – | 49.99
288.6 K | 50.51 | –
293.05 K | – | 49.65
293.08 K | 50.23 | –
298.18 K | 49.96 | –
298.19 K | – | 49.5
303.09 K | 49.6 | 49.11
308.05 K | – | 48.73
308.08 K | 49.16 | –
313.06 K | – | 48.58
313.09 K | 49.02 | –
318 K | 48.72 | 48.32
322.85 K | – | 47.95
322.87 K | 48.32 | –
328.24 K | – | 47.64
328.31 K | 47.95 | –
333.32 K | – | 47.28
333.5 K | 47.54 | –
338.08 K | – | 47.1
338.14 K | 47.43 | –
342.74 K | – | 46.86
342.81 K | 46.8 | –
348.07 K | 46.79 | –
348.15 K | – | 46.48
353.02 K | 46.07 | –
353.21 K | – | 46.16
358.98 K | 45.94 | –
359.05 K | – | 45.89
362.96 K | – | 45.51
363.8 K | 45.67 | –

CCCCCCCCCn1cc[n+](C)c1.F[B-](F)(F)F [1-nonyl-3-methylimidazolium tetrafluoroborate]
Liquid
Settings | mass density [kg/m3]
269.37 K | 1108.1
274.7 K | 1104.14
278.49 K | 1101.14
283.7 K | 1097.76
288.38 K | 1094.04
293.34 K | 1090.55
298.3 K | 1087.19
303.16 K | 1084.03
308.11 K | 1080.68
313.07 K | 1077.08
317.8 K | 1073.8
322.89 K | 1070.47
328.78 K | 1067.01
333.51 K | 1063.61
338.65 K | 1060.05
342.35 K | 1057.5
348.22 K | 1053.82
352.72 K | 1050.55
357.94 K | 1047.5
363.54 K | 1043.86

surface tension liquid-gas [mN/m], Liquid
Settings | Ring tensiometer | Willhelmy plate method
269.49 K | 33.05 | –
274.62 K | 32.75 | –
278.42 K | 32.6 | –
283.61 K | – | 32.09
283.73 K | 32.33 | –
288.37 K | – | 31.88
288.41 K | 32.14 | –
293.36 K | 31.82 | 31.67
298.28 K | 31.59 | –
298.31 K | – | 31.45
303.11 K | 31.38 | –
303.12 K | – | 31.29
308.07 K | 31.2 | –
308.11 K | – | 31.1
313.04 K | 30.9 | –
313.06 K | – | 30.81
317.79 K | 30.65 | –
317.83 K | – | 30.66
322.85 K | 30.43 | –
322.9 K | – | 30.39
328.72 K | 30.17 | –
328.74 K | – | 30.12
333.58 K | 29.92 | 29.92
338.63 K | 29.71 | –
338.67 K | – | 29.67
342.37 K | 29.49 | –
342.48 K | – | 29.52
348.12 K | – | 29.3
348.21 K | 29.22 | –
352.1 K | 29.02 | –
353.08 K | – | 29.07
357.88 K | 28.83 | –
357.99 K | – | 28.86
363.56 K | 28.58 | –
363.61 K | – | 28.61

CCCCCCCn1cc[n+](C)c1.F[B-](F)(F)F [1-heptyl-3-methylimidazolium tetrafluoroborate]
surface tension liquid-gas [mN/m], Liquid
Settings | Ring tensiometer | Willlhelmy plate method
263.76 K | 37.38 | –
268.69 K | 37.21 | –
273.9 K | 36.87 | –
278.51 K | 36.66 | –
283.18 K | – | 36.23
283.21 K | 36.42 | –
288.47 K | – | 35.98
288.49 K | 36.15 | –
293.29 K | 36.03 | 35.74
298.21 K | 35.76 | 35.54
303.1 K | 35.54 | –
303.11 K | – | 35.31
308.19 K | – | 35.1
308.2 K | 35.18 | –
313.21 K | 34.9 | –
313.24 K | – | 34.82
317.78 K | 34.74 | –
317.81 K | – | 34.6
323 K | 34.45 | –
323.06 K | – | 34.33
327.79 K | 34.24 | –
327.8 K | – | 34.13
333.01 K | 33.87 | –
333.09 K | – | 33.82
338.61 K | – | 33.62
338.64 K | 33.54 | –
342.42 K | 33.44 | –
342.5 K | – | 33.39
348.76 K | – | 33.17
348.79 K | 33.17 | –
353.93 K | 32.8 | –
353.99 K | – | 32.86
357.12 K | – | 32.66
357.16 K | 32.47 | –
364.34 K | 31.97 | –
364.4 K | – | 32.34

Liquid
Settings | mass density [kg/m3]
263.87 K | 1147.27
268.63 K | 1143.58
273.63 K | 1139.44
278.6 K | 1136.36
283.19 K | 1133.24
288.51 K | 1129.35
293.3 K | 1126.02
298.21 K | 1122.73
303.11 K | 1119.42
308.22 K | 1115.86
313.23 K | 1112.13
317.78 K | 1108.94
322.97 K | 1105.52
327.81 K | 1102.47
333.04 K | 1098.48
338.46 K | 1095.77
342.6 K | 1092.48
348.77 K | 1089.11
353.97 K | 1085.93
357.24 K | 1082.94
364.28 K | 1078.73
